The source of these data is paper PMC7782499, “Progerinin, an optimized progerin-lamin A binding inhibitor, ameliorates premature senescence phenotypes of Hutchinson-Gilford progeria syndrome” (Communications Biology, 2021).

“And” between values parts separate entries of the source, which are not always exact repeats. Equal values may be shown once.

The subject of this data set is normal fibroblasts and HGPS cells. The data set is described as follows: Long-term treatment cell viability (MTT assay) in normal fibroblasts and HGPS cells. Format: cell-based. The protocol: To determine the cellular viability, cells were treated with lonafarnib or SLC-D011 for 2 weeks. For MTT assay, cells were incubated with 0.5 mg/ml of 3-(4,5-dimethythiazol-2-yl)-2,5-diphenyl tetrazolium bromide (MTT) solution for 6 hr at 37 °C. After removing MTT solution, the precipitated materials were dissolved in […] DMSO and quantified by measuring the absorbance at 540 nm.
Fig. S12. […] A. SLC-D011, compar ed to lonafarnib, reduces exogenous progerin expression in HEK293 cells. B. Long- t e r m treatment (treated with 2μM ever y ot her day for 2 weeks) with lonafarnib or SLC-D011 was performed for normal fibroblasts and HGPS cells. […]
to determine the cellular viability after treatment with lonafarnib or SLC-D011 (n = 3 independent experiment; two-tailed Student’s t -test), **p < 0.001, *p < 0.05, N.S: not significant. […]

`CC1(C)Oc2cc3oc(=O)ccc3cc2C[C@@H]1OC/C=C/c1ccccc1` [SLC-D011]: the Cell viability (AG03198, Ave) is recorded as 1.64 ratio; the Cell viability (AG03198, individual replicate) is 1.6383 ratio and 1.687 ratio and 1.593 ratio; the Cell viability (AG11513, Ave) was 1.362 ratio; the Cell viability (AG11513, individual replicate) is 1.362 ratio and 1.373 ratio and 1.352 ratio; the Cell viability (N9, Ave) is recorded as 2.552 ratio; the Cell viability (N9, individual replicate) was 2.559 ratio and 2.546 ratio and 2.551 ratio.
Consider `NC(=O)N1CCC(CC(=O)N2CCC([C@H]3c4ncc(Br)cc4CCc4cc(Cl)cc(Br)c43)CC2)CC1` [lonafarnib, reference compound], for which, for the setting “2μM every other day for 2 weeks”, the “Cell death on long-term treatment” value is “induced cell death in both normal fibroblasts and HGPS cells”. The Cell viability reads like this: (AG03198, Ave) 0.5027 ratio; (AG03198, individual replicate) 0.6483 ratio and 0.3112 ratio and 0.5484 ratio; (AG11513, Ave) 0.692 ratio; (AG11513, individual replicate) 0.6982 ratio and 0.6988 ratio and 0.6791 ratio; (N9, Ave) 1.642 ratio; (N9, individual replicate) 1.689 ratio and 1.546 ratio and 1.691 ratio.
